Experimental data as given in publication PMC4794788, “Cell‐free synthesis of isotopically labelled peptide ligands for the functional characterization of G protein‐coupled receptors” (FEBS Open Bio, 2015).
Several values for one entry are separate records, joined by “and”; a condition that tells them apart may be missing. Equal entries are not always repeated. Entries after “also recorded” stand apart in the source; their conditions may differ.

Key:
[1] = Solubility/precipitation of cell‐free translated peptide in the reaction mix; type: physicochemical; settings: soluble vs pellet fraction
Description: Complement 5a is flanked by an N‐terminal 6x His tag followed by a tobacco etch virus (TEV) cleavage site. […] Expression of both constructs is controlled by a T7 promoter. Cell‐free synthesis was accomplished using a homemade S30 extract from E. coli 6. The extract was prepared from the E. coli A19 strain, described in detail in 6. The T7 RNA polymerase was produced and purified as published 50. Cell‐free reactions were executed in continuous exchange mode by using different sizes of D‐Tube™ dialyzers (Merck Millipore) (mini for reactions containing labelled amino acids and maxi for reactions with unlabeled amino acids) and a 1 : 17 ratio between reaction (RM) and feeding mix (FM). Mini D‐tube™ dialyzers were placed into 2 mL tubes filled with feeding mix, maxi dialyzers into 50 mL tubes, respectively. […] Reactions were incubated at 30 °C, 100 rpm in an Infors Multitron shaker incubator (Infors, Bottmingen, Switzerland) overnight. Cell‐free reactions were analysed by SDS/PAGE using 10% Bis/Tris Novex NuPAGE gels (Life Technologies).

C5aR [2] = settings: literature comparison; cited from earlier work
Description: Table 1 Binding parameters of cell‐free synthesized radioligands | column: Literature IC50 [nM]

[3] = molecular target: T1, human complement 5a receptor (C5aR) (Homo sapiens, UniProt P21730); assay: Competition binding against [^3H]‐C5a^CF at C5aR in Sf9 membranes; settings: read-out: KI (inhibition constant)
T1 construct: 10x His (N); FLAG (N); StrepII (C); made in house; host or cells: Sf9 insect cells (recombinant baculovirus, pOET5 / flashBAC); membrane preparation
T1 sequence (P21730 1-350): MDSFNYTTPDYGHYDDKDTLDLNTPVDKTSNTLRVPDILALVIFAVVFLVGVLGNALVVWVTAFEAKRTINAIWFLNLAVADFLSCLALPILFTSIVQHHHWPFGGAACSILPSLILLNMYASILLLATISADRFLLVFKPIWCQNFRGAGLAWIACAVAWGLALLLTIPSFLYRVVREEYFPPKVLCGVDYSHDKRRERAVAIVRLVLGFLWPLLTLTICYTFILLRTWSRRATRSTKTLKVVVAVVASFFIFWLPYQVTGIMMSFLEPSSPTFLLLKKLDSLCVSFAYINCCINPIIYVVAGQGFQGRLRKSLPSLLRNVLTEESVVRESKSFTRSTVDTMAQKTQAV
Description: The complement 5a receptor was coproduced with Gαi2 in Sf9 insect cells. The cDNA encoding the human complement 5a receptor flanked by an N‐terminal 10x His and FLAG tag and a C‐terminal StrepII tag was cloned into the pOET5 transfer vector (Oxford Expression Technologies, Oxford, UK). pOET5 contains two expression cassettes, the receptor is expressed under the control of a polyhedron promoter; Gαi2 expression is regulated by a p10 promoter. Recombinant baculoviruses were generated with the flashBAC protein expression system (Oxford Expression Technologies) according to manufacturer's instructions. […] Total membrane protein content was determined by the bicinchoninic acid (BCA) method using bovine serum albumin as the standard.
For the determination of binding parameters, membranes containing the respective receptors (10–50 μg total membrane protein) were incubated with cell‐free synthesized tritium‐labelled ligands in varying concentrations. Binding was terminated by rapid filtration over glass fibre filters pretreated with 0.3% polyethyleneimine using a Brandel harvester (Brandel, Alpha Biotech Ltd, Killearn, UK) and analysed by liquid scintillation counting. […]
Data are represented as means ± SEM from three or two independent experiments performed in triplicate and analysed in […] […]

[4] = molecular target: endothelin receptors (Table 1: compared with ETBR); settings: determined with ^125I‐ET‐1 on receptors from native human tissues; literature comparison; cited from earlier work
C5aR [5] = settings: C5aR in native human tissues; literature comparison; cited from earlier work
Description: Table 1 Binding parameters of cell‐free synthesized radioligands | column: Literature KD [nM] || As the interaction between C5a and its receptor is mainly mediated by the disulphide bridged core region of C5a (residues 21–55, 22) and the C‐terminal region (especially Arg^74 30) the N‐terminal hexa‐histidine tag was not removed. The cell‐free synthesized ligand binds to the complement 5a receptor with a dissociation constant of 1.18 ± 0.27 nM (Fig. 4A), which corresponds to values determined by Gerard and Gerard for C5aR in native human tissues (1 nM 31, Table 1). Competition experiments with the unlabelled small molecule inverse agonist NDT 9513727 and the peptide antagonist H2N‐ChaW resu ...

[6] = with DsbA and reduced glutathione (GSH) replacing DTT

## CC[C@H](C)[C@H](NC(=O)[C@H](CC(=O)O)NC(=O)[C@H](CC(C)C)NC(=O)[C@H](Cc1cnc[nH]1)NC(=O)[C@@H]1CSSC[C@H](N)C(=O)N[C@@H](CO)C(=O)N[C@H]2CSSC[C@H](NC(=O)[C@H](CCC(=O)O)NC(=O)[C@H](CCCCN)NC(=O)[C@H](CC(=O)O)NC(=O)[C@H](CCSC)NC(=O)[C@H](CC(C)C)NC(=O)[C@H](CO)NC(=O)[C@H](CO)NC2=O)C(=O)N[C@@H](C(C)C)C(=O)N[C@@H](Cc2ccc(O)cc2)C(=O)N[C@@H](Cc2ccccc2)C(=O)N1)C(=O)N[C@H](C(=O)N[C@@H](Cc1c[nH]c2ccccc12)C(=O)O)[C@@H](C)CC [Endothelin‐1, reference compound]
[1]; reducing conditions (DTT), without DsbA, listed as ET‐1
  Solubility/precipitation of cell‐free product: strong precipitation; also recorded: heavy precipitation
[1]; [6]
  Solubility/precipitation of cell‐free product: did not display any precipitates

## CCCCn1c(-c2ccccc2)nc(-c2ccccc2)c1CN(Cc1ccc2c(c1)OCO2)Cc1ccc2c(c1)OCO2 [NDT 9513727, N,N‐Bis(1,3‐benzodioxol‐5‐ylmethyl)‐1‐butyl‐2,4‐diphenyl‐1H‐imidazole‐5‐methanamine]
C5aR [2]
  IC50: 11.6 ± 1 nM
[3]
  Ki: 169 nM and 54.5 nM

## ^125I‐ET‐1: ^125I‐labelled endothelin‐1
[4]
  Kd: 0.33 nM

B1: C5a^CF: cell‐free‐synthesized complement 5a containing the N‐terminal 6xHis tag and TEV cleavage site (protein, UniProt P01031 678-751, looked up)
C5a anaphylatoxin: TLQKKIEEIAAKYKHSVVKKCCYDGACVNNDETCEQRAARISLGPRCIKAFTECCVVASQLRANISHKDMQLGR
modifications: C5a anaphylatoxin N-terminal 6xHis tag and TEV site
notes: cell‐free‐synthesized complement 5a containing the N‐terminal 6xHis tag and TEV cleavage site
[1]; reducing conditions (DTT), without DsbA
  Solubility/precipitation of cell‐free product: strong precipitation; also recorded: insoluble and can only be detected in the pellet fraction; also recorded: heavy precipitation
[1]; [6]
  Solubility/precipitation of cell‐free product: did not display any precipitates; also recorded: can be detected in the soluble fraction

B2: ^125I‐C5a: commercially available ^125I‐C5a (protein, UniProt P01031 678-751, looked up)
C5a anaphylatoxin: TLQKKIEEIAAKYKHSVVKKCCYDGACVNNDETCEQRAARISLGPRCIKAFTECCVVASQLRANISHKDMQLGR
modifications: C5a anaphylatoxin 125I-labelled
notes: commercially available ^125I‐C5a
C5aR [5]
  Kd: 1 nM
